Data: patent US20230002344A1, “NOVEL BENZOTHIOPHENE DERIVATIVES AND USE THEREOF FOR STIMULATING MITOCHONDRIAL TURNOVER” (NIBN, The National Institute For Biotechnology In The Negev …, priority 2019, published 2023)

Experiments:
Assay type in all cases: cell-based
INS1 cells [1] = experiment: Ubiquitinated mitochondrial proteins (anti-ubiquitin blot); settings: 25 uM, 24 h
Procedure: INS1 cells were treated with SPB08007 (25 uM) or DMSO (0.1%) for 24 h. FIG. 17A: total mitochondrial protein isolated from 4×10^7 cells were loaded into SDS-PAGE gel previously added of Stain Free reagent, which was used to detect total protein bands in the BioRad Bio Lab gel reader. Protein was transferred into PVDF membrane, blotted to anti-ubiquitin. FIG. 17B: Quantification of total ubiquitin relative to total mitochondrial proteins. The quantification is expressed relative to DMSO, control. *p=0.001.
Cell treatments and mitochondrial extraction. INS1 cells were treated with SBP08007 or MWP00839 25 uM for 24 h. Mitochondrial and cytosolic fractions from INS1 cells were performed by using the Mitochondria Isolation Kit for Cultured Cells (Pierce). INS1 cells were lysed in a hypotonic buffer (10 mM NaCl, 1.5 mM MgCl2, and 10 mM Tris.HCl, pH 7.5), and mitochondria were extracted in a Dounce homogenizer in mitochondrial buffer (1 mM EDTA, 210 mM mannitol, 70 mM sucrose, and 5 mM Tris.HCl, 7.5), followed by centrifugation at 1,300×g for 10 min at 4° C. The supernatant was further centrifuged at 17,000×g for 15 min at 4° C. to pellet the mitochondria. […]
Western blot. […] Stain free total protein labeling was imaged in Image Lab 6.0 Software (BioRad), which was used for quantification of the mitochondria and normalization to total protein staining.

INS1 cells [2] = experiment: Mitotracker Green pulse-chase (mitochondrial clearance); settings: 25 uM, 18 h after MTG pulse
Procedure: FIGS. 8A-E show the effect of two hit compounds on mitophagy confirmed by other methods. […] Cells were imaged using a 63× Plan Neofluar objective and the Airyscan module of a Zeiss LSM880 confocal microscope. […] Data are normalized by DMSO. […] After 18 h, cells were imaged. As control, cells were loaded with MTG 30 min prior imaging—time “0” (100% MTG staining). Cells were imaged using a 40× lens of a Perkin Elmer Operetta high-content imaging system microscope (FIG. 8D). […] Each experiment was repeated three times. For mCherry-GFP-FIS1101-152 assay, 59-85 cells of each group were analyzed in each experiment and for MTG pulse-chase assay, 45 fields were analyzed in each experiment. Values of *p<0.05 vs. DMSO, #p<0.05 vs. “time 0”.
Mitotracker Green Fluorescence, Anion Radical Superoxide and Mitochondrial Membrane Potential. […] Results are expressed as the percentage of MTG fluorescence relative to MTG fluorescence of the “time 0” control. […] Integrated fluorescence of each field was analyzed in Image J after background subtraction and threshold (IsoData) application. Twenty-four fields of each condition were analyzed in each experiment.
A second fluorescence technique, Mitotracker Green (MTG) “pulse-and-chase” (FIG. 8 C-E), was utilized to confirm faster mitochondrial clearance upon treatment with SPB08007 and MWP00839. […]

INS1 cells [3] = experiment: Lipotoxicity (palmitate) protection and recovery
Procedure: In FIGS. 4A and 4B: INS1 cells were treated with either DMSO (control), SPB08007 (25 μM), or MWP00839 (25 μM) for 18 hours and were subjected to an Oxygen consumption rate (OCR) test. Viability test (using XTT staining) was determined after 24 hours exposure. […] In FIG. 4C: INS1 cells were treated with 400 μM palmitate (1:5 BSA palmitate) for 24 hours and were then let to recover in presence or absence of SPB08007 (“SBP”) for 18 hours. n=4 (paired t-test).
To address the potential beneficiary effect of mitochondrial clearance by SPB08007 (compound of structural Formula 6), we employed lipotoxicity, a model that we have previously reported to impair autophagy and mitochondrial clearance by alkalization of the lysosomes (Las, G., et al., Fatty acids suppress autophagic turnover in beta-cells. J Biol Chem, 2011.286 (49): p. 42534-44).

CC(=O)N/C(=C\c1sc2ccccc2c1C)C(=O)O [SPB08007]
ubiquitination of mitochondrial proteins (INS1 cells [1]): less ubiquitinated
MTG intensity after pulse-chase (INS1 cells [2]): lower MTG intensity compared to DMSO
recovery after palmitate (INS1 cells [3]; 400 μM palmitate 24 hours, then 18 hours recovery with compound): slight but significant increase in recovery
protection from palmitate, co-treatment (INS1 cells [3]; co-treatment with palmitate for 18 hours): did not show any protection
